# Test results published in patent US20120108629A1, “New use of neferine” (Institute of Chinese Materia Medica, China Academy, priority 2009, published 2012).
# Legend:
# [1] = test system: Human breast cancer cell line MDA-MB-231; assay: Inhibition on proliferation of human cancer cells, MDA-MB-231; type: cell-based; conditions: MDA-MB-231, 72 h incubation
# Description: (§1) Inhibition on proliferation of human cancer cells: It is reported that the drugs that up-regulate TRPM8 or down-regulate TRPV1 can inhibit proliferation of breast cancer. To further investigate whether neferine follow the same way, human breast cancer cell line MDA-MB-231 and MDA-MB-453 as well as cancer gene-containing human breast gland epithelial cell line MCF10A-Myc and human pancreatic cancer cell line MIAPaCa-2 were employed and cultured in DMEM or DMEM/F12 medium with epithelial growth factor in vitro. After incubation with various concentrations of test agents for 72 h, the effective concentration of them for inhibiting the tumor cells was assayed according to the common method in the art.
# (§2) According to the “Inhibition on proliferation of human cancer cells” described above, the effective concentrations of neferine for the inhibition of tumors were obtained (table 11).
# [2] = test system: Human pancreas cancer cell line MIAPaCa-2; assay: Inhibition on proliferation of human cancer cells, MIAPaCa-2; type: cell-based
# Description: as §1, §2
# [3] = test system: Cancer gene-containing human breast epithelial cell line MCF10A-Myc; assay: Inhibition on proliferation, MCF10A-Myc; type: cell-based; conditions: 72 h incubation
# Description: as §1, §2
# TRPV1 [4] = target: TRPV1 (Rattus norvegicus, UniProt O35433); assay: Intracellular calcium change in DRG cells, Fluo-4 fluorescence (Examples 9-11, Tables 9-11); type: cell-based
# Experimental: (§3) Detection of intracellular calcium concentrations of DRG cells: DRG cells cultured under normal, low and high temperature conditions was obtained. The medium was discarded and the cells were washed after certain time. 0.1%F-127, 5 μM of Fluo-4-AM, M fluorescent dye were added and loaded at 25° C. out of light for 30 min. After dye loading, the redundant dye was washed out and buffer and test compounds were added respectively. The cells were put in a closed chamber on a microscope stage. Fluorescence dyed cells were detected with appropriate conditions. The change of fluorescence intensity in each cell was determined and the data were analyzed by software. The change of the intracellular calcium concentration was indicated by fluorescence intensity. The change degree of the intracellular calcium concentration was represented by the percent ratio of the change value of fluorescence intensity before and after administration and the value of fluorescence intensity before administration (Δ[Ca2+]i), i.e. Δ[Ca2+]i=(fluorescence intensity value after administration F-fluorescence intensity value before administration F0)/fluorescence intensity value before administration F0×100%. The change of the intracellular calcium concentration indicated the function of TRP.
# (§4) The medium was discarded and the fluorescent dye was added and loaded for 30 min. The change of fluorescence intensity in cell was determined in a closed chamber on a microscope stage and the change of the intracellular calcium concentration was assayed.
# as §4
# (this is the appropriate stimulation time for the intracellular calcium change after stimulation under 19° C., and the experiment data was not shown). The medium was discarded and the fluorescent dye was added and loaded for 30 min.
# [5] = test system: Human breast cancer cell line MDA-MB-453; assay: Inhibition on proliferation of human cancer cells, MDA-MB-453; type: cell-based; conditions: MDA-MB-453, 72 h incubation
# Description: as §1, §2
# TRPM8 mRNA = TRPM8 mRNA expression in DRG cells by real-time PCR; conditions: for Effect on TRPM8 mRNA expression (in words) / TRPM8 mRNA expression (2^−ΔΔCT): DRG cells
# Experimental: DRG were aseptically removed and meticulously cleaned the rootlets and connective tissue. The tissue was digested with collagenase and trypsin in succession, and then centrifuged and the digestive liquid was discarded. Cells were prepared into single cell suspension in common culture medium, and then calculated and adjusted to 10^5 nerve cells per ml. It was incubated in culture plates pre-coated with laminin at 37° C. in 5% CO2 for 48 hours. Camptothecine was used to inhibit proliferation of other cells. Culture was continued to obtain DRG cells with a high purity (>98%).
# Detection of TRPM8 and TRPV1 mRNA expression: The total RNA of the DRG neuronal cells was extracted in a routine way, after exposure to the tested agents of various concentrations under the normal, low and high temperature conditions respectively. The concentration of RNA was measured and its cDNA was prepared. The desired amount of resulting cDNA and TRPM8 or TRPV1 gene primers were added on the IQ5-Type real-time IQ5-Type real-time PCR meter with GAPDH as the endogenous control to perform extension. Melting curves were generated. Relative gene expression was calculated using the comparative threshold cycle (2-^ΔΔCT) method with the calculated formula as following:
# ΔΔCt=(Ct,Target-Ct,GAPDH)x-(Ct,Target-Ct,GAPDH)Control
# X represents any one of tested, Control represents double target gene expression after GAPDH correction.
# The purified culture medium of DRG cells was added with three different concentrations of test compounds and cultured at 37° C. in 5% CO2 for 24 h. The total RNA was extracted immediately after culture. The TRPM8 agonist hexahydrothymol was positive control group and the normal culture medium was vehicle control group. Then the real-time PCR amplification was performed and TRPM8 mRNA was determined.
# The purified culture medium of DRG cells was added with three different concentrations of test compounds and cultured at 37° C. in 5% CO2 for 23 h followed by 39° C. in 5% CO2 for 1 h. The total RNA was extracted immediately after culture. The TRPM8 agonist hexahydrothymol was positive control group and the normal culture medium was vehicle control group. Then the real-time PCR amplification was performed and TRPM8 mRNA was determined.
# The purified culture medium of DRG cells was added with three different concentrations of test compounds and cultured at 37° C. in 5% CO2 for 22 h followed by 19° C. in 5% CO2 for 2 h. The total RNA was extracted immediately after culture. The TRPM8 agonist hexahydrothymol was positive control group and the normal culture medium was vehicle control group. Then the real-time PCR amplification was performed and TRPM8 mRNA was determined.
# TRPV1 [6] = assay: Intracellular calcium change in DRG cells, Fluo-4 fluorescence (Examples 4-5, Tables 4-5); type: cell-based, rat
# Experimental: as §3, §4, §4
# TRPV1 mRNA = TRPV1 mRNA expression in DRG cells by real-time PCR; type: cell-based, rat; conditions: for TRPV1 mRNA expression (2^−ΔΔCT): 37° C. 24 h
# breast cancer cells = assay: Inhibition on proliferation of human cancer cells, breast cancer cells; type: cell-based
# Description: as §1, §2
# [7] = 37° C. 22 h then 19° C. 2 h, 2.5 μmol/L
# [8] = 37° C. 22 h then 19° C. 2 h, 5 μmol/L
# [9] = 37° C. 22 h then 19° C. 2 h, 10 μmol/L
# [10] = 37° C. 23 h then 39° C. 1 h, 2.5 μmol/L
# [11] = 37° C. 23 h then 39° C. 1 h, 5 μmol/L
# [12] = 37° C. 23 h then 39° C. 1 h, 10 μmol/L
# TRPV1 (Rattus norvegicus, UniProt O35433), sequence (O35433 whole entry): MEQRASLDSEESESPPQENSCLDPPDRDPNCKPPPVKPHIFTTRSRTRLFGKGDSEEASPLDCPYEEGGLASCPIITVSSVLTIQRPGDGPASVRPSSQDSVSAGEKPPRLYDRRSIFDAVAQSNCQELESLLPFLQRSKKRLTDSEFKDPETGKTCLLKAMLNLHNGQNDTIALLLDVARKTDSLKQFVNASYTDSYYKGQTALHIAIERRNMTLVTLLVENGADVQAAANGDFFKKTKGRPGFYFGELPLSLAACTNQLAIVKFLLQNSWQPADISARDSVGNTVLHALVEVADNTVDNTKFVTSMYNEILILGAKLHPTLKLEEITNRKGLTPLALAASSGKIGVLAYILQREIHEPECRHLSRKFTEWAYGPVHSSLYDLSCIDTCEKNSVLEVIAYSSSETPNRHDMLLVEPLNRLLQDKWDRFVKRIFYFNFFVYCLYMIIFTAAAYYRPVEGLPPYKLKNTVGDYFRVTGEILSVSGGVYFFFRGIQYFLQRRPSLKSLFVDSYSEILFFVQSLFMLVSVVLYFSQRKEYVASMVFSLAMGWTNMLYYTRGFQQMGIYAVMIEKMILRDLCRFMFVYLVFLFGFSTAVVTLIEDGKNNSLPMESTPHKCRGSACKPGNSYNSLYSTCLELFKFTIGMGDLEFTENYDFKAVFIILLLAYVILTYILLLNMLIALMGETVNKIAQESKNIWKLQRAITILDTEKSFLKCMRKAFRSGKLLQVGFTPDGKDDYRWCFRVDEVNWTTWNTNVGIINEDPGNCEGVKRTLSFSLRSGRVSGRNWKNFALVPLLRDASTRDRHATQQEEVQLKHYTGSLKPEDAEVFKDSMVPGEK
substance,measurement,setting,value
neferine,Inhibition concentration,[1],1.30 µg/mL
same,Inhibition concentration,"[2]; MIAPaCa-2, 72 h incubation",3.64 µg/mL
same,inhibition concentration for pancreas,[2]; pancreas cancer cells,below 4 μg/ml
same,Inhibition concentration,[3],5.95 µg/mL
same,Effect on intracellular calcium concentration (in words),"TRPV1 [4]; Example 9, DRG cells, 37° C.",decrease the concentration of intracellular calcium dose-dependently
same,"correlation coefficient of dose dependence, intracellular calcium","TRPV1 [4]; Example 9, DRG cells, 37° C.",−0.85
same,Effect on intracellular calcium concentration (in words),"TRPV1 [4]; Example 10, DRG cells, 39° C.",inhibit the change of the intracellular calcium concentration dose-dependently
same,"correlation coefficient of dose dependence, intracellular calcium","TRPV1 [4]; Example 10, DRG cells, 39° C.",−0.815
same,Effect on intracellular calcium concentration (in words),"TRPV1 [4]; Example 11, DRG cells, 19° C.",further inhibit the change of the intracellular calcium concentration dose-dependently
same,"correlation coefficient of dose dependence, intracellular calcium","TRPV1 [4]; Example 11, DRG cells, 19° C.",−0.99
same,Intracellular Calcium changes [(F1 − F0)/F0/%],"TRPV1 [4]; Table 9, DRG cells, 37° C. 24 h, 2.5 μmol/L",98.15 ± 10.71%
same,Intracellular Calcium changes [(F1 − F0)/F0/%],"TRPV1 [4]; Table 9, DRG cells, 37° C. 24 h, 5 μmol/L",98.64 ± 12.77%
same,Intracellular Calcium changes [(F1 − F0)/F0/%],"TRPV1 [4]; Table 9, DRG cells, 37° C. 24 h, 10 μmol/L",96.33 ± 8.96%
same,Intracellular Calcium changes [(F1 − F0)/F0/%],"TRPV1 [4]; Table 10, DRG cells, 37° C. 22 h then 39° C. 2 h, 2.5 μmol/L",128.63 ± 14.40%
same,Intracellular Calcium changes [(F1 − F0)/F0/%],"TRPV1 [4]; Table 10, DRG cells, 37° C. 22 h then 39° C. 2 h, 5 μmol/L",120.51 ± 11.29%
same,Intracellular Calcium changes [(F1 − F0)/F0/%],"TRPV1 [4]; Table 10, DRG cells, 37° C. 22 h then 39° C. 2 h, 10 μmol/L",119.49 ± 11.21%
same,Intracellular Calcium changes [(F1 − F0)/F0/%],"TRPV1 [4]; Table 11, DRG cells, 37° C. 21 h then 19° C. 3 h, 2.5 μmol/L",99.71 ± 10.96%
same,Intracellular Calcium changes [(F1 − F0)/F0/%],"TRPV1 [4]; Table 11, DRG cells, 37° C. 21 h then 19° C. 3 h, 5 μmol/L",98.30 ± 11.89%
same,Intracellular Calcium changes [(F1 − F0)/F0/%],"TRPV1 [4]; Table 11, DRG cells, 37° C. 21 h then 19° C. 3 h, 10 μmol/L",93.02 ± 10.54%
same,Inhibition concentration,[5],2.05 µg/mL
same,Effect on TRPM8 mRNA expression (in words),TRPM8 mRNA; 19° C.,up-regulate the expression levels of TRPM8 mRNA dose-dependently
same,Effect on TRPM8 mRNA expression (in words),TRPM8 mRNA; 37° C.,up-regulate the expression levels of TRPM8 mRNA dose-dependently
same,TRPM8 mRNA expression (2^−ΔΔCT),TRPM8 mRNA; [7],3.25 ± 0.65
same,TRPM8 mRNA expression (2^−ΔΔCT),TRPM8 mRNA; [8],3.37 ± 0.87
same,TRPM8 mRNA expression (2^−ΔΔCT),TRPM8 mRNA; [9],3.49 ± 0.82
same,TRPM8 mRNA expression (2^−ΔΔCT),TRPM8 mRNA; [10],0.74 ± 0.23
same,TRPM8 mRNA expression (2^−ΔΔCT),TRPM8 mRNA; [11],0.78 ± 0.33
same,TRPM8 mRNA expression (2^−ΔΔCT),TRPM8 mRNA; [12],0.79 ± 0.24
same,TRPM8 mRNA expression (2^−ΔΔCT),"TRPM8 mRNA; 37° C. 24 h, 2.5 μmol/L",1.10 ± 0.27
same,TRPM8 mRNA expression (2^−ΔΔCT),"TRPM8 mRNA; 37° C. 24 h, 5 μmol/L",1.14 ± 0.31
same,TRPM8 mRNA expression (2^−ΔΔCT),"TRPM8 mRNA; 37° C. 24 h, 10 μmol/L",1.28 ± 0.27
same,Effect on TRPM8 mRNA expression (in words),TRPM8 mRNA; 39° C.,did not up-regulate TRPM8 mRNA expression
same,Effect compared with the agonist hexahydrothymol (in words),TRPM8 mRNA; general statement on TRPM8,stronger effect than hexahydrothymol
same,Effect on intracellular calcium concentration (in words),"TRPV1 [6]; Example 4, DRG cells, 37° C.",increase the intracellular calcium concentration dose-dependently
same,Intracellular Calcium changes [(F1 − F0)/F0/%],"TRPV1 [6]; Table 4, DRG cells, 37° C. 24 h, 2.5 μmol/L",121.41 ± 10.05%
same,Intracellular Calcium changes [(F1 − F0)/F0/%],"TRPV1 [6]; Table 4, DRG cells, 37° C. 24 h, 5 μmol/L",128.16 ± 11.48%
same,Intracellular Calcium changes [(F1 − F0)/F0/%],"TRPV1 [6]; Table 4, DRG cells, 37° C. 24 h, 10 μmol/L",132.07 ± 19.30 %
same,Intracellular Calcium changes [(F1 − F0)/F0/%],"TRPV1 [6]; Table 5, DRG cells, 37° C. 22 h then 39° C. 2 h, 2.5 μmol/L",107.88 ± 13.07%
same,Intracellular Calcium changes [(F1 − F0)/F0/%],"TRPV1 [6]; Table 5, DRG cells, 37° C. 22 h then 39° C. 2 h, 5 μmol/L",108.09 ± 12.85%
same,Intracellular Calcium changes [(F1 − F0)/F0/%],"TRPV1 [6]; Table 5, DRG cells, 37° C. 22 h then 39° C. 2 h, 10 μmol/L",112.72 ± 11.74 %
same,Effect on TRPV1 mRNA expression (in words),TRPV1 mRNA; 19° C.,further inhibit expression levels of TRPV1 mRNA dose-dependently
same,TRP V1 mRNA expression(2^−ΔΔCT),TRPV1 mRNA; [7],0.54 ± 0.17
same,TRP V1 mRNA expression(2^−ΔΔCT),TRPV1 mRNA; [8],0.47 ± 0.20
same,TRP V1 mRNA expression(2^−ΔΔCT),TRPV1 mRNA; [9],0.45 ± 0.23
same,TRP V1 mRNA expression(2^−ΔΔCT),TRPV1 mRNA; [10],4.16 ± 0.71
same,TRP V1 mRNA expression(2^−ΔΔCT),TRPV1 mRNA; [11],3.70 ± 0.69
same,TRP V1 mRNA expression(2^−ΔΔCT),TRPV1 mRNA; [12],3.13 ± 0.51
same,TRPV1 mRNA expression (2^−ΔΔCT),TRPV1 mRNA; 2.5 μmol,0.96 ± 0.41
same,TRPV1 mRNA expression (2^−ΔΔCT),TRPV1 mRNA; 5 μmol,1.09 ± 0.30
same,TRPV1 mRNA expression (2^−ΔΔCT),TRPV1 mRNA; 10 μmol,1.04 ± 0.43
same,Effect on TRPV1 mRNA expression (in words),"TRPV1 mRNA; 37° C., under the test concentrations",could not change expression levels of TRPV1 mRNA
same,Effect on TRPV1 mRNA expression (in words),TRPV1 mRNA; 39° C.,decrease the expression levels of TRPV1 mRNA dose-dependently
same,inhibition concentration on breast cancer cells,breast cancer cells,below 2.1 μg/ml
